Test results from US4567165A, “N-Methanesulfonic acid derivatives of 3-demethoxyistamycin B” (Zaidan Hojin Biseibutsu Kagaku Kenkyu Kai, priority 1984, dated 1986).
In brackets after ≈: the same amount, converted by molar mass.

Experiments:
[1] = test system: Pseudomonas aeruginosa GN315; assay: Minimum inhibitory concentration, standard serial dilution method on Mueller-Hinton agar; format: cell-based; conditions: 37° C., 17 hours
Description: (§1) Minimum inhibitory concentrations (mcg/ml) of the parent 3-demethoxyistamycin B were also estimated in the same manner for the comparison purpose and also are shown in Table 1.

[2] = test system: Pseudomonas aeruginosa TI-13; assay: as above; format: cell-based; conditions: 17 hours; for Minimum Inhibitory concentration: 37° C.
Description: as §1

[3] = test system: Escherichia coli K-12 C600 R135; assay: as above; format: cell-based; conditions: 17 hours; for Minimum Inhibitory concentration: 37° C.
Description: as §1

[4] = test system: Pseudomonas aeruginosa H9; assay: as above; format: cell-based; conditions: 37° C., 17 hours
Description: as §1

[5] = test system: Staphylococcus aureus Ap01; assay: as above; format: cell-based; conditions: 37° C., 17 hours
Description: as §1

Serratia marcescens = assay: as above; format: cell-based; conditions: 37° C., 17 hours
Description: as §1

Providencia Pv 16 = assay: as above; format: cell-based; conditions: 17 hours; for Minimum Inhibitory concentration: 37° C.
Description: as §1

[6] = test system: Escherichia coli JR66/W677; assay: as above; format: cell-based; conditions: 37° C., 17 hours
Description: as §1

[7] = test system: Staphylococcus aureus 209P; assay: as above; format: cell-based; conditions: for Minimum Inhibitory concentration: Staphylococcus aureus 209P, Mueller-Hinton agar, 37° C., 17 hours
Description: as §1

[8] = test system: Pseudomonas aeruginosa A3; assay: as above; format: cell-based; conditions: 37° C., 17 hours
Description: as §1

[9] = Acute toxicity, intravenous, in mice; conditions: mouse, in vivo, mice (ICR, adult female), single administration in saline
Method: Acute toxicity of the various N-methanesulfonic acid derivatives of 3-demethoxyistamycin B of the invention has been determined by the following procedure:
A test compound or substance was dissolved in 0.25 ml of a physiological saline solution and the solution of the test compound or substance so prepared was intravenously administered into a series of mouse groups each consisting of six mice (ICR strain, adult female, body weight 20 g±0.5 g) as the test animal, so that the test compound or substance was given to each mouse. Acute toxicity of 3-demethoxyistamycin B was also estimated in the same manner as above for the comparison purpose.

[10] = test system: Escherichia coli K-12 LA290 R55; assay: Minimum inhibitory concentration, standard serial dilution method on Mueller-Hinton agar; format: cell-based; conditions: K12LA290R55, 17 h, read-out: Minimum Inhibitory concentration
Description: as §1

Escherichia coli K-12 R5 = assay: as above; format: cell-based; conditions: K12R5, 17 h, read-out: Minimum Inhibitory concentration
Description: as §1

[11] = test system: Escherichia coli K-12 ML1629; assay: as above; format: cell-based; conditions: K12ML1629, 37° C., 17 hours
Description: as §1

Escherichia coli JR225 = assay: as above; format: cell-based; conditions: JR225, 17 h, read-out: Minimum Inhibitory concentration
Description: as §1

Escherichia coli K-12 = assay: as above; format: cell-based; conditions: K12, 37° C., 17 hours
Description: as §1

Row | Compound | Minimum Inhibitory concentration [1] [µg/mL] | Minimum Inhibitory concentration [2] [µg/mL] | Minimum Inhibitory concentration [3] [µg/mL] | Minimum Inhibitory concentration [4] [µg/mL] | Minimum Inhibitory concentration [5] [µg/mL] | Minimum Inhibitory concentration (Serratia marcescens) [µg/mL] | Minimum Inhibitory concentration (Providencia Pv 16) [µg/mL] | Minimum Inhibitory concentration [6] [µg/mL] | Minimum Inhibitory concentration [7] [µg/mL] | also measured
1 | 3-demethoxyistamycin B-mono-N-methanesulfonic acid sodium salt [Compound (1)] | 100 | 25 | 6.25 | 50 |  |  |  |  |  | 
2 | 3-demethoxyistamycin B-tetra-N-methanesulfonic acid sodium salt [Compound (4)] |  |  |  | 50 | 1.56 | 3.13 | 1.56 | 6.25 |  | 
3 | 3-demethoxyistamycin B-di-N-methanesulfonicacid sodium salt [Compound (2)] | 100 | 25 | 6.25 | 50 | 0.78 | 3.13 | 1.56 | 3.13 | 0.78 | Minimum Inhibitory concentration [8]: 0.78 µg/mL
4 | 3-demethoxyistamycin B-tri-N-methanesulfonic acid sodium salt [Compound (3)] | 50 | 25 |  | 50 | 0.78 | 6.25 |  | 3.13 | 1.56 | 
5 | CNCC1CCC(N)C(OC2C(N)CCC(N(C)C(=O)CN)C2O)O1 (stereo not drawn) [3-Demethoxyistamycin B] |  |  |  |  |  |  |  |  |  | LD50 [9]: 100 to 200 mg/kg; MIC [1]: 6.25 µg/mL (≈ 17.4 µM); MIC [5]: 0.39 µg/mL (≈ 1.08 µM); MIC ([2]; TI13, 37° C.): 6.25 µg/mL (≈ 17.4 µM); MIC ([3]; K12C600R135, 37° C.): 0.78 µg/mL (≈ 2.17 µM); MIC [10]: 1.56 µg/mL (≈ 4.34 µM); MIC ([7]; Staphylococcus aureus, 209P, 17 h, read-out: Minimum Inhibitory concentration): < 0.2 µg/mL; MIC (Escherichia coli K-12 R5): 1.56 µg/mL (≈ 4.34 µM); MIC (Serratia marcescens): 0.78 µg/mL (≈ 2.17 µM); MIC [11]: 0.78 µg/mL (≈ 2.17 µM); MIC (Escherichia coli JR225): 0.78 µg/mL (≈ 2.17 µM); MIC [4]: 12.5 µg/mL (≈ 34.8 µM); MIC [8]: 0.39 µg/mL (≈ 1.08 µM); MIC (Providencia Pv 16; PV16, 37° C.): 0.78 µg/mL (≈ 2.17 µM); MIC [6]: 0.78 µg/mL (≈ 2.17 µM); MIC (Escherichia coli K-12): 0.78 µg/mL (≈ 2.17 µM)
